Measurements taken from paper PMC7730182, “Synthesis and in Silico Modelling of the Potential Dual Mechanistic Activity of Small Cationic Peptides Potentiating the Antibiotic Novobiocin against Susceptible and Multi-Drug Resistant Escherichia coli” (International Journal of Molecular Sciences, 2020).
Where no end group is shown, it is not given here.

What was measured:
[1] = tested on: Escherichia coli NCTC 10418; test: microbe, parasite or virus in culture; assay type: cell-based; conditions: for MIC: Escherichia coli, NCTC10418, compound alone, broth microdilution, Iso-Sensitest Broth, range 128–0 μg/mL, 5 × 10^5 CFU/mL, visual read-out, duplicate, read-out: MIC, E. coli NCTC 10418
Description: (§1) The Minimum Inhibitory Concentrations (MIC) of compounds 1–27 were evaluated through a broth microdilution assay against susceptible strains of Escherichia coli (Gram–negative) and Staphylococcus aureus (Gram-positive).
(§2) The antibacterial activity of the peptides and peptide/antibiotic combinations were tested by the broth microdilution assay according to [24]. Escherichia coli NCTC 10,418 and Staphylococcus aureus NCTC 12,981 were obtained from the National Collection of Type Cultures, UK. Escherichia coli G69 was a clinical isolate as previously described.
(§3) Briefly, all bacterial strains were cultured on nutrient agar (Sigma-Aldrich, Gillingham, UK) plates and incubated for 24 h at 37 °C prior to MIC determination. In addition, known quantities of each test sample were dissolved in DMSO and then diluted in ISB (Iso- Sensitest Broth, Oxoid, Basingstoke, UK) to give a range concentration of 128–0 μg/mL, unless stated differently. […] Finally, the overnight cultures of each of the tested strains were suspended to an inoculum density of approximately 1.0 × 10^8 CFU/mL in phosphate buffered saline (PBS), consisting of 137 mM NaCl, 3 mM KCl, 8 mM Na2HPO4, and […] (Oxoid, Basingstoke, UK). The cell suspensions were standardized by adjusting the optical density to 0.1 at 600 nm (Thermo Scientific UV-Vis Spectrophotometer, Abingdon, UK) before being diluted 1:100 in ISB prior to inoculation
(§4) The assays were performed by microdilution using 96-well microtiter plates with a final inoculum of 5 × 10^5 CFU/mL and each sample was tested in duplicate in at least two independent experiments in order to confirm the reliability of the data. Results were determined by visual inspection of the wells and the presence of an evident opaque medium or white pellets were indicative of bacterial growth. The MIC values were recorded as the lowest concentration at which no bacterial growth was detected.
(§5) Table S4. Minimum inhibitory concentration (MIC) of synthesised peptides and of reference antibiotics
(§6) novobiocin and norfloxacin.

[2] = tested on: Staphylococcus aureus NCTC 12981; test: microbe, parasite or virus in culture; assay type: cell-based; conditions: for MIC: Staphylococcus aureus, NCTC12981, compound alone, broth microdilution, Iso-Sensitest Broth, range 128–0 μg/mL, 5 × 10^5 CFU/mL, visual read-out, duplicate, read-out: MIC, S. aureus NCTC 12981
Description: as §1, §2, §3, §4, §5, §6

[3] = tested on: susceptible E. coli NCTC 10418; test: Novobiocin potentiation assay (MIC of novobiocin with fixed concentration of peptide or PAβN); assay type: cell-based, Escherichia coli; parameters: key to MIC of Novobiocin, E. coli NCTC 10418, +128 μg/mL added peptide / MIC of Novobiocin, E. coli NCTC 10418, +32 μg/mL added peptide: Non potentiating (NP) indicated no reduction in the MIC of novobiocin was observed; conditions: for MIC of Novobiocin, E. coli NCTC 10418, +32 μg/mL added peptide / MIC of Novobiocin, E. coli NCTC 10418, +128 μg/mL added peptide: Iso-Sensitest Broth, 5 × 10^5 CFU/mL, visual read-out; for MIC of Novobiocin, E. coli NCTC 10418, +32 μg/mL added peptide: fixed 32 μg/mL peptide; for MIC of Novobiocin, E. coli NCTC 10418, +128 μg/mL added peptide: fixed 128 μg/mL peptide
Description: (§7) The peptides were also tested in combination with antibiotics novobiocin and norfloxacin. Novobiocin has low efficacy against Gram-negative bacteria due to its hydrophobicity, giving limited cell permeability.
as §2, §3, §4

[4] = tested on: multi-drug resistant clinical isolate E. coli G69; test: as above; assay type: cell-based, Escherichia coli; conditions: for potentiation of novobiocin against multi-drug resistant E. coli, result in words: E. coli G69, added peptide; for MIC of Novobiocin, E. coli G69, +32 μg/mL added peptide / MIC of Novobiocin, E. coli G69, +128 μg/mL added peptide: Iso-Sensitest Broth, 5 × 10^5 CFU/mL, visual read-out; for MIC of Novobiocin, E. coli G69, +32 μg/mL added peptide: fixed 32 μg/mL peptide; for MIC of Novobiocin, E. coli G69, +128 μg/mL added peptide: fixed 128 μg/mL peptide
Description: as §7, §2, §3, §4

[5] = tested on: susceptible E. coli 10418; test: Norfloxacin potentiation assay (MIC of norfloxacin with fixed concentration of peptide or PAβN); assay type: cell-based, Escherichia coli; conditions: broth microdilution, duplicate; for MIC of norfloxacin, E. coli 10418, +128 μg/mL of peptide: fixed 128 μg/mL peptide
Description: (§8) In order to gather more evidence on the potential mechanisms of action, the effects of the peptides in combination with the quinolone antibiotic norfloxacin were determined. Norfloxacin is active against Gram-negative bacteria, generally achieving entry via porin channels, but is also able to enter the bacterial cell via the membrane in porin-deficient mutants. Therefore, any membrane permeability mechanism would not be expected to have a significant effect on improving the activity of norfloxacin in porin-competent strains. This is indeed what was observed (Table S5), which added weight to our hypothesis that our very short peptides may be acting as membrane permeability enhancers for novobiocin.
as §2
as §3, with “inoculation […]” for “inoculation”
as §4, with “detected. […]” for “detected.”
(§9) potentiating novobiocin. Assays were performed at fixed concentration of 128 μg/mL against susceptible E. coli 10418 and multidrug resistant clinical isolate E. coli G69. Potentiation assay for norfloxacin was also performed in presence of 64 μg/mL of RND efflux pump inhibitor PAβN. All tests were repeated in […]
(§10) Compound Sequence MIC of norfloxacin (μg/mL) […]
(§11) inhibitor PaβN but no potentiation was observed, so the assay was not repeated at lower concentrations.

[6] = tested on: multidrug resistant clinical isolate E. coli G69; test: as above; assay type: cell-based, Escherichia coli; conditions: broth microdilution, duplicate; for MIC of norfloxacin, E. coli G69, +128 μg/mL of peptide: fixed 128 μg/mL peptide
Description: as §8, §2
as §3, with “inoculation […]” for “inoculation”
as §4, with “detected. […]” for “detected.”
as §9, §10, §11

With CO[C@@H]1[C@@H](OC(N)=O)[C@@H](O)[C@H](Oc2ccc3c(O)c(NC(=O)c4ccc(O)c(CC=C(C)C)c4)c(=O)oc3c2C)OC1(C)C [Novobiocin] the MIC [1] was 32 µg/mL, the MIC [2] was 4 µg/mL and the MIC ([3]; Escherichia coli, NCTC10418, novobiocin alone, no peptide, broth microdilution, duplicate) was 32 µg/mL. The MIC ([4]; Escherichia coli, novobiocin alone, no peptide, broth microdilution, duplicate) was > 128 µg/mL.

Compound CCn1cc(C(=O)O)c(=O)c2cc(F)c(N3CCNCC3)cc21 [Norfloxacin, reference compound] has an MIC [1] of 0.062 µg/mL, an MIC [2] of 2 µg/mL and an MIC ([5]; Escherichia coli, E.COLI10418, norfloxacin alone) of 0.062 µg/mL. The MIC ([6]; Escherichia coli, norfloxacin alone) was > 128 µg/mL.

With WRWRW-NH2 [Compound 6] the “MIC, E. coli NCTC 10418” value ([1]; NCTC 10418, 24 h) was 64 µg/mL and the “MIC, S. aureus NCTC 12981” value ([2]; NCTC 12981, 24 h) was 64 µg/mL.

For “WKWKW [Compound 15, short cationic peptide WKWKW, amidated at the C-terminus]”, the “MIC of norfloxacin, E. coli 10418, +128 μg/mL of peptide” value [5] was 0.125 µg/mL, the “MIC of norfloxacin, E. coli G69, +128 μg/mL of peptide” value (shortened to “MIC of norfloxacin, E. coli G69”) [6] was > 128 µg/mL and the “MIC of Novobiocin, E. coli NCTC 10418, +32 μg/mL added peptide” value ([3]; broth microdilution, duplicate) was 8 µg/mL. For the same compound, the “MIC of Novobiocin, E. coli NCTC 10418, +128 μg/mL added peptide” value ([3]; broth microdilution, duplicate) was 4 µg/mL, the “potentiation of novobiocin against multi-drug resistant E. coli, result in words” value [4] was “restore the susceptibility” and the “MIC of Novobiocin, E. coli G69, +32 μg/mL added peptide” value ([4]; broth microdilution, duplicate) was 128 µg/mL. For the same compound, the “MIC of Novobiocin, E. coli G69, +128 μg/mL added peptide” value ([4]; broth microdilution, duplicate) was 8 µg/mL.

In the case of RPRRPRLPW-NH2 [Compound 27], the “MIC of norfloxacin, E. coli 10418, +128 μg/mL of peptide” value [5] is reported as 0.062 µg/mL, the “MIC of norfloxacin, E. coli G69” value [6] is reported as > 128 µg/mL and the “fold reduction in the MIC of novobiocin against the susceptible strain” value ([3]; E. coli 10418, added peptide) is reported as 256 fold. For the same compound, the “MIC of Novobiocin, E. coli NCTC 10418, +32 μg/mL added peptide” value ([3]; broth microdilution, duplicate) was 8 µg/mL, the “MIC of Novobiocin, E. coli NCTC 10418, +128 μg/mL added peptide” value ([3]; broth microdilution, duplicate) was 0.125 µg/mL and the “potentiation of novobiocin against multi-drug resistant E. coli, result in words” value [4] was “restore the susceptibility”. For the same compound, the “MIC of Novobiocin, E. coli G69, +32 μg/mL added peptide” value ([4]; broth microdilution, duplicate) was 16 µg/mL and the “MIC of Novobiocin, E. coli G69, +128 μg/mL added peptide” value ([4]; broth microdilution, duplicate) was 16 µg/mL.

“RFRF [Compound 9, short cationic peptide RFRF, amidated at the C-terminus]” was tested, and the “MIC of norfloxacin, E. coli 10418, +128 μg/mL of peptide” value [5] was 0.062 µg/mL, the “MIC of norfloxacin, E. coli G69” value [6] was > 128 µg/mL and the “MIC of Novobiocin, E. coli NCTC 10418, +32 μg/mL added peptide” value ([3]; broth microdilution, duplicate) was “NP”. The “MIC of Novobiocin, E. coli NCTC 10418, +128 μg/mL added peptide” value ([3]; broth microdilution, duplicate) was 2 µg/mL, the “MIC of Novobiocin, E. coli G69, +32 μg/mL added peptide” value ([4]; broth microdilution, duplicate) was 128 µg/mL and the “MIC of Novobiocin, E. coli G69, +128 μg/mL added peptide” value ([4]; broth microdilution, duplicate) was 8 µg/mL.
